Assay results reported in patent publication US8404680B2, “N-[3-(5-amino-3,3a,7,7a-tetrahydro-1H-2,4-dioxa-6-aza-inden-7-yl)-phenyl]-amides as BACE1 and/or BACE2 inhibitors” (Hoffmann-La Roche Inc., priority 2011, dated 2013).

Experiments:
[1] = target: T1, BACE1 (Homo sapiens, UniProt P56817); assay: Cellular Aβ-lowering assay; format: cell-based; conditions: human HEK293 cells stably expressing human APP wt (APP695); Aβ40 in supernatant by ELISA after 18-20 hrs
T1 construct: Human HEK293 cells which are stably transfected with a vector expressing a cDNA of the human APP wt gene (APP695); endogenous in cells; host or cells: HEK293 (human), stably transfected with human APP695 wt
T1 sequence (P56817 46-501): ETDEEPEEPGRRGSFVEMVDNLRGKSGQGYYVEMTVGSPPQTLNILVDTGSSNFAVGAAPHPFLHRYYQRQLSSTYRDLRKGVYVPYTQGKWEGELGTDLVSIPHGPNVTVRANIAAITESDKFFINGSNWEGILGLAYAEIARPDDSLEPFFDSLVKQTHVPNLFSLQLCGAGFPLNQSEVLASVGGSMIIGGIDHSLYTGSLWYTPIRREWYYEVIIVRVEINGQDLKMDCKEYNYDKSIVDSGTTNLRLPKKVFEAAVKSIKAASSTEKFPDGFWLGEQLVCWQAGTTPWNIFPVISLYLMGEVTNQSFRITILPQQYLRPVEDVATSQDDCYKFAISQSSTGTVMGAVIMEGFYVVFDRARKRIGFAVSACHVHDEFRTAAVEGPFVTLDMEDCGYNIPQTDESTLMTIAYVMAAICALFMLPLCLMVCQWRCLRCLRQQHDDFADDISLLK
Experimental: Cellular Aβ-Lowering Assay:
Human HEK293 cells which are stably transfected with a vector expressing a cDNA of the human APP wt gene (APP695) were used to assess the potency of the compounds in a cellular assay. The cells were seeded in 96-well microtiter plates in cell culture medium (Iscove, plus 10% (v/v) fetal bovine serum, glutamine, penicillin/streptomycin) to about 80% confluence and the compounds were added at a 10× concentration in 1/10 volume of medium without FCS containing 8% DMSO (final concentration of DMSO was kept at 0.8% v/v). After 18-20 hrs incubation at 37° C. and 5% CO2 in a humidified incubator the culture supernatant was harvested for the determination of Aβ40 concentrations. 96well ELISA plates (e.g., Nunc MaxiSorb) were coated with monoclonal antibody which specifically recognize the C-terminal end of Aβ40 (Brockhaus et al., NeuroReport 9, 1481-1486; 1998). After blocking of non-specific binding sites with e.g. 1% BSA and washing, the culture supernatants were added in suitable dilutions together with a horseradish peroxidase-coupled Aβ detection antibody (e.g., antibody 4G8, Senetek, Md. Heights, Mo.) and incubated for 5 to 7 hrs. Subsequently the wells of the microtiter plate were washed extensively with Tris-buffered saline containing 0.05% Tween 20 and the assay was developed with tetramethylbenzidine/H2O2 in citric acid buffer. After stopping the reaction with one volume 1 NH2SO4 the reaction was measured in an ELISA reader at 450 nm wavelength. The concentrations of Aβ in the culture supernatants were calculated from a standard curve obtained with known amounts of pure Aβ peptide.

[2] = target: T2, BACE2 (Rattus norvegicus, UniProt Q6IE75); assay: Assay for BACE inhibition by measuring cellular TMEM27 cleavage; format: cell-based; conditions: INS-TMEM27 (INS1e-derived rat cell line, inducible hTMEM27); shed TMEM27 in medium by ELISA
T2 construct: endogenous cellular BACE2 in the Ins1e rat cell line; endogenous in cells; host or cells: INS-TMEM27 (INS1e-derived rat cell line, TetOn-inducible full-length hTMEM27)
T2 sequence (Q6IE75 63-514): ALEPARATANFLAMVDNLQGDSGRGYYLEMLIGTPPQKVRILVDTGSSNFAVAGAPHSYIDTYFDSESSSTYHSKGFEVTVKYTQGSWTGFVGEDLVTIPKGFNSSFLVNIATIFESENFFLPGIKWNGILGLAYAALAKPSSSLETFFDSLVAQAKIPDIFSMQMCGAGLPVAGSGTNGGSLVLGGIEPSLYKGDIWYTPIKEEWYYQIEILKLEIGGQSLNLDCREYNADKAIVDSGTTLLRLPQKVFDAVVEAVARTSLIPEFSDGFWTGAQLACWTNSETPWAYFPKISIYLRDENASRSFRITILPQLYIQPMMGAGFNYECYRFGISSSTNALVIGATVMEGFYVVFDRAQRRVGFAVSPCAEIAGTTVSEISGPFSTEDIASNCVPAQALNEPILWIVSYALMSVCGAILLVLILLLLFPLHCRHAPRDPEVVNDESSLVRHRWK
From the text: Assay for BACE Inhibition by Measuring Cellular TMEM27 Cleavage:
The assay uses the principle of inhibition of human TMEM27 cleavage by endogenous cellular BACE2 in the Ins1e rat cell line and shedding from the cell surface into the culture medium, followed by detection in an ELISA assay Inhibition of BACE2 prevents the cleavage and shedding in a dose-dependent manner.
The stable cell line “INS-TMEM27” represents an INS1e-derived cell line with inducible expression (using the TetOn system) of full-length hTMEM27 in a doxycycline-dependent manner. The cells are cultured throughout the experiment in RPMI1640+ Glutamax (Invitrogen) Penicillin/Streptomycin, 10% Fetal bovine serum, […], […], 100 micrograms/ml G418 and 100 microgram/ml hygromycin and are grown inadherent culture at 37° C. in a standard CO2 cell culture incubator.
INS-TMEM27 cells are seeded in 96-well plates. After 2 days in culture, BACE2 inhibitor is added in a range of concentrations as required by the assay and after a further two hours, doxycycline is added to a final concentration of 500 ng/ml. The cells are incubated for a further 46 hours and the supernatant harvested for detection of shed TMEM27.
An ELISA assay (using a pair of mouse anti-human-TMEM27 antibodies, raised against the extracellular domain of TMEM27) is used for detection of TMEM27 in the culture medium. An EC50 for BACE2 inhibition is calculated using the ELISA readout for each inhibitor concentration with standard curve-fitting software such as XLFit for the Excel spreadsheet program.

IC50 [1] | IC50 [2] | Compound
34 nM | – | C[C@]1(c2cc(NC(=O)c3ccc(Cl)cn3)ccc2F)N=C(N)O[C@]2(C(F)(F)F)COC[C@H]12 (racemic) [Example 21, N-(3-((4SR,4aSR,7aSR)-2-amino-4-methyl-7a-(trifluoromethyl)-4a,5,7,7a-tetrahydro-4H-furo[3,4-e][1,3]oxazin-4-yl)-4-fluorophenyl)-5-chloropicolinamide]
7 nM | – | C[C@]1(c2cc(NC(=O)c3ccc(C#N)cn3)ccc2F)N=C(N)O[C@]2(C(F)(F)F)COC[C@H]12 (racemic) [Example 22, N-(3-((4SR,4aSR,7aSR)-2-amino-4-methyl-7a-(trifluoromethyl)-4a,5,7,7a-tetrahydro-4H-furo[3,4-e][1,3]oxazin-4-yl)-4-fluorophenyl)-5-cyanopicolinamide]
9 nM | – | C[C@]1(c2cc(NC(=O)c3ccc(C#N)cn3)ccc2F)N=C(N)O[C@]2(C(F)(F)F)COC[C@H]12 (relative stereo) [Example 19, N-(3-(rel-(4SR,4aSR,7aSR)-2-amino-4-methyl-7a-(trifluoromethyl)-4a,5,7,7a-tetrahydro-4H-furo[3,4-e][1,3]oxazin-4-yl)-4-fluorophenyl)-5-cyanopicolinamide]
7 nM | – | CC#CCOc1cnc(C(=O)Nc2ccc(F)c([C@@]3(C)N=C(N)O[C@]4(C(F)(F)F)COC[C@H]34)c2)cn1 (relative stereo) [Example 20, N-(3-(rel-(4SR,4aSR,7aSR)-2-amino-4-methyl-7a-(trifluoromethyl)-4a,5,7,7a-tetrahydro-4H-furo[3,4-e][1,3]oxazin-4-yl)-4-fluorophenyl)-5-(but-2-ynyloxy)pyrazine-2-carboxamide]
0.7 nM | 36 nM | C[C@]1(c2cc(NC(=O)c3ccc(Cl)cn3)ccc2F)N=C(N)O[C@@H]2COC[C@@H]21 [Example 1, 5-Chloro-pyridine-2-carboxylic acid [3-((3aS,7S,7aS)-5-amino-7-methyl-3,3a,7,7a-tetrahydro-1H-2,4-dioxa-6-aza-inden-7-yl)-4-fluoro-phenyl]-amide]
2.5 nM | 18 nM | C[C@]1(c2cc(NC(=O)c3ccc(F)cn3)ccc2F)N=C(N)O[C@@H]2COC[C@@H]21 [Example 3, 5-Fluoro-pyridine-2-carboxylic acid [3-((3aS,7S,7aS)-5-amino-7-methyl-3,3a,7,7a-tetrahydro-4H-2,4-dioxa-6-aza-inden-7-yl)-4-fluoro-phenyl]-amide]

Further lines, the molecule ahead of its results:

Compound | IC50 [1] | IC50 [2]
C[C@]1(c2cc(NC(=O)c3ncc(Cl)cc3Cl)ccc2F)N=C(N)O[C@@H]2COC[C@@H]21 [Example 2, 3,5-Dichloro-pyridine-2-carboxylic acid [3-((3aS,7S,7aS)-5-amino-7-methyl-3,3a,7,7a-tetrahydro-1H-2,4-dioxa-6-aza-inden-7-yl)-4-fluoro-phenyl]-amide] | 0.8 nM | 14 nM
C[C@]1(c2cc(NC(=O)c3ccc(C#N)cn3)ccc2F)N=C(N)O[C@@H]2COC[C@@H]21 [Example 4, 5-Cyano-pyridine-2-carboxylic acid [3-((3aS,7S,7aS)-5-amino-7-methyl-3,3a,7,7a-tetrahydro-4H-2,4-dioxa-6-aza-inden-7-yl)-4-fluoro-phenyl]-amide] | – | 17 nM
C[C@]1(c2cc(NC(=O)c3ccccn3)ccc2F)N=C(N)O[C@@H]2COC[C@@H]21 [Example 5, Pyridine-2-carboxylic acid [3-((3aS,7S,7aS)-5-amino-7-methyl-3,3a,7,7a-tetrahydro-4H-2,4-dioxa-6-aza-inden-7-yl)-4-fluoro-phenyl]-amide] | 8 nM | 37 nM
CC#CCOc1cnc(C(=O)Nc2ccc(F)c([C@@]3(C)N=C(N)O[C@@H]4COC[C@@H]43)c2)cn1 [Example 7, 5-But-2-ynyloxy-pyrazine-2-carboxylic acid [3-((3aS,7S,7aS)-5-amino-7-methyl-3,3a,7,7a-tetrahydro-4H-2,4-dioxa-6-aza-inden-7-yl)-4-fluoro-phenyl]-amide] | – | 47 nM
C[C@]1(c2cc(NC(=O)c3ccc(OCC4CC4)cn3)ccc2F)N=C(N)O[C@@H]2COC[C@@H]21 [Example 9, 5-Cyclopropylmethoxy-pyridine-2-carboxylic acid [3-((3aS,7S,7aS)-5-amino-7-methyl-3,3a,7,7a-tetrahydro-1H-2,4-dioxa-6-aza-inden-7-yl)-4-fluoro-phenyl]-amide] | 5 nM | –
CC#CCOc1ccc(C(=O)Nc2ccc(F)c([C@@]3(C)N=C(N)O[C@@H]4COC[C@@H]43)c2)nc1 [Example 10, 5-But-2-ynyloxy-pyridine-2-carboxylic acid [3-((3aS,7S,7aS)-5-amino-7-methyl-3,3a,7,7a-tetrahydro-1H-2,4-dioxa-6-aza-inden-7-yl)-4-fluoro-phenyl]-amide] | 0.1 nM | –
C[C@]1(c2cc(NC(=O)c3ccc(OCC(F)(F)C(F)F)cn3)ccc2F)N=C(N)O[C@@H]2COC[C@@H]21 [Example 11, 5-(2,2,3,3-Tetrafluoro-propoxy)-pyridine-2-carboxylic acid [3-((3aS,7S,7aS)-5-amino-7-methyl-3,3a,7,7a-tetrahydro-1H-2,4-dioxa-6-aza-inden-7-yl)-4-fluoro-phenyl]-amide] | 5 nM | –
C[C@]1(c2cc(NC(=O)c3ncc(C#N)cc3Cl)ccc2F)N=C(N)O[C@@H]2COC[C@@H]21 [Example 12, N-(3-((4S,4aS,7aS)-2-amino-4-methyl-4a,5,7,7a-tetrahydro-4H-furo[3,4-e][1,3]oxazin-4-yl)-4-fluorophenyl)-3-chloro-5-cyanopicolinamide] | 1 nM | –
N#Cc1ccc(C(=O)Nc2ccc(F)c([C@@]3(CF)N=C(N)O[C@@H]4COC[C@@H]43)c2)nc1 [Example 13, 5-Cyano-pyridine-2-carboxylic acid [3-((3aS,7S,7aS)-5-amino-7-fluoromethyl-3,3a,7,7a-tetrahydro-1H-2,4-dioxa-6-aza-inden-7-yl)-4-fluoro-phenyl]-amide] | 1 nM | –
NC1=N[C@](CF)(c2cc(NC(=O)c3ccc(Cl)cn3)ccc2F)[C@H]2COC[C@H]2O1 [Example 14, 5-Chloro-pyridine-2-carboxylic acid [3-((3aS,7S,7aS)-5-amino-7-fluoromethyl-3,3a,7,7a-tetrahydro-1H-2,4-dioxa-6-aza-inden-7-yl)-4-fluoro-phenyl]-amide] | 1 nM | –
NC1=N[C@](CF)(c2cc(NC(=O)c3ccc(F)cn3)ccc2F)[C@H]2COC[C@H]2O1 [Example 15, 5-Fluoro-pyridine-2-carboxylic acid [3-((3aS,7S,7aS)-5-amino-7-fluoromethyl-3,3a,7,7a-tetrahydro-1H-2,4-dioxa-6-aza-inden-7-yl)-4-fluoro-phenyl]-amide] | 2.5 nM | –
NC1=N[C@@](c2cc(NC(=O)c3ccc(Cl)cn3)ccc2F)(C(F)F)[C@H]2COC[C@H]2O1 [Example 16, 5-Chloro-pyridine-2-carboxylic acid [3-((3aS,7S,7aS)-5-amino-7-difluoromethyl-3,3a,7,7a-tetrahydro-1H-2,4-dioxa-6-aza-inden-7-yl)-4-fluoro-phenyl]-amide] | 5.5 nM | –
